Source: patent US11297805B2, “Miticidal beehive entranceway” (priority 2019, dated 2022)

What was measured:
[1] = system: Varroa mites; conditions: concentrated enough to kill the mites but not to harm the bees; cited from earlier work
[2] = Simulated bee-flight (drone propeller) thymol decay and model of thymol dosage on a worker bee; parameters: species or system honey bee; conditions: 1 mg thymol/Hydromed behind drone propellers, 6 hours per day, exponential decay
Method: As such, a single worker bee would pass through the DF-TE 40×, receiving ˜0.7 μg per passage, or 28 μg per day.

SMILES: Cc1ccc(C(C)C)c(O)c1 [thymol]
- therapeutic window of thymol vapor [1]: 5-15 microgram/liter of hive air
- time until a single daily dose of thymol is exhausted on the bee abdomen [2]: ≤ 4 days
